These results are taken from article PMC12084297, “Cytoplasmic connexin43-microtubule interactions promote glioblastoma stem-like cell maintenance and tumorigenicity” (Cell Death & Disease, 2025).

The test relates to α-tubulin. In words: Co-immunoprecipitation with α-tubulin antibody: peptide interaction with α-tubulin. The conditions noted are these: VTC-037 GSCs, 50 μM, 24 h, cross-linked (DTBP); compared to antennapedia alone or JM2-scrambled; NeutrAvidin-HRP detection. The class given is binding, human. The procedure:
Prior to lysis, cross-linking was completed by incubating cells in DTBP (dimethyl 3,3’-dithiobispropionimidate; 2 mM in PBS) for 30 min at 37 °C followed by a glycine quench (100 mM glycine in PBS) for 15 min at room temperature. Cross-linked samples were lysed in RIPA buffer supplemented with Halt^TM Protease and Phosphatase Inhibitor Cocktail as described above, but without sonication. Co-immunoprecipitation (co-IP) assays were also performed without cross-linking; non-cross-linked samples were lysed using a co-IP lysis buffer (0.5% Triton X-100, 50 mM Tris HCl, 150 mM NaCl, 1 mM EDTA, 1 mM EGTA, 1 mM DTT, 0.1 mM Na3VO4, and 1 mM NaF) supplemented with Halt^TM Protease and Phosphatase Inhibitor Cocktail, without sonication. Protein concentration was quantified using the DC protein assay and a standard curve obtained with increasing concentrations of BSA, and 500 μg of total protein was used per reaction for co-IP. Inputs were removed prior to co-IP and denatured in Bolt LDS sample buffer as described above. Remaining protein lysates were incubated with Protein G Sepharose^TM 4 Fast Flow beads (GE Healthcare) for pre-clearance for 30 min at 4 °C. Samples were incubated with 2 μg of mouse anti-α-tubulin (MilliporeSigma, T6199) for cross-linked samples or mouse anti-Cx43 antibody (EMD Millipore; MAB3067) for non-cross-linked samples for 90 min at 4 °C. […]

VFFKGVKDRVKGRSD [JM2]: the “Interaction of peptide with α-tubulin (co-IP)” value is reported as “robustly interacted with α-tubulin”.
